Measurements reported in article PMC4038554, “Human CD4^+ T Cell Responses to the Dog Major Allergen Can f 1 and Its Human Homologue Tear Lipocalin Resemble Each Other” (PLoS ONE, 2014).

What was measured:
Test in all cases: HLA class II peptide-binding assay (competitive ELISA)
DRB1*1501 = DRB1*1501 (Homo sapiens, UniProt P01903+P01911); details: immunopurified HLA, reference peptide IC50 775 nM, ratio ≤20 high affinity, 20–200 moderate affinity
DRB1*1101 = DRB1*1101 (Homo sapiens, UniProt P01903+P01911, A100R/A169T/A87E/I96F/K41T/L162R/M171V/P40S/Q125H/Q178H/Q39Y/Q99D/R42S/S66Y/T262R/V115G/W38E); details: immunopurified HLA, reference peptide IC50 50 nM, ratio ≤20 high affinity, 20–200 moderate affinity
DRB1*1301 = DRB1*1301 (Homo sapiens, UniProt P01903+P01911, A100E/A169T/K41T/L162R/M171V/P40S/Q125H/Q178H/Q39Y/Q99D/R42S/S66N/T262R/W38E/Y61H); details: immunopurified HLA, reference peptide IC50 208 nM, ratio ≤20 high affinity, 20–200 moderate affinity
DRB1*0401 = DRB1*0401 (Homo sapiens, UniProt P01903+P01911, A100K/A169T/F76Y/I96L/K127E/L162R/M171V/N62H/P40V/Q125Y/R42H/S133A/S149N/S66Y/V115G/V209L/W38E); details: immunopurified HLA, reference peptide IC50 8 nM, ratio ≤20 high affinity, 20–200 moderate affinity
DRB3 = system: DRB3; parameters: species or system human; details: DRB3; competitive ELISA, immunopurified HLA; reference peptide IC50 60 nM; ratio ≤20 high affinity, 20–200 moderate affinity
DRB4 = system: DRB4; parameters: species or system human; details: DRB4; competitive ELISA, immunopurified HLA; reference peptide IC50 8 nM; ratio ≤20 high affinity, 20–200 moderate affinity
DRB1*0101 = DRB1*0101 (Homo sapiens, UniProt P01903+P01911, A100R/D57E/F55L/F60I/F76Y/I96L/L162R/M171V/P40L/Q125E/R42F/V115G/Y59C); details: immunopurified HLA, reference peptide IC50 3 nM, ratio ≤20 high affinity, 20–200 moderate affinity
DRB5 = system: DRB5; parameters: species or system human; details: DRB5; competitive ELISA, immunopurified HLA; reference peptide IC50 7 nM; ratio ≤20 high affinity, 20–200 moderate affinity
DRB1*0301 = DRB1*0301 (Homo sapiens, UniProt P01903+P01911, A100K/A102G/A103R/A169T/F55Y/I96L/K41T/L162R/M171V/P40S/Q125H/Q178H/Q39Y/R42S/S66N/T106N/T262R/W38E/Y61H); details: immunopurified HLA, reference peptide IC50 423 nM, ratio ≤20 high affinity, 20–200 moderate affinity
DRB1*0701 = DRB1*0701 (Homo sapiens, UniProt P01903+P01911, A100R/A102G/A103Q/D57E/D86V/E43K/F76Y/K127E/L162R/M171V/P40G/Q125H/Q99D/R33Q/R42Y/R54Q/S133A/S66F/T210M/V115G/Y107V/Y59L/Y89S); details: immunopurified HLA, reference peptide IC50 5 nM, ratio ≤20 high affinity, 20–200 moderate affinity

Sequence | relative binding ratio (IC50 of the test peptide divided by IC50 of the reference peptide) (DRB1*1501) | relative binding ratio (IC50 of the test peptide divided by IC50 of the reference peptide) (DRB1*1101) | relative binding ratio (IC50 of the test peptide divided by IC50 of the reference peptide) (DRB1*1301) | relative binding ratio (IC50 of the test peptide divided by IC50 of the reference peptide) (DRB1*0401) | relative binding ratio (IC50 of the test peptide divided by IC50 of the reference peptide) (DRB3) | relative binding ratio (IC50 of the test peptide divided by IC50 of the reference peptide) (DRB4) | relative binding ratio (IC50 of the test peptide divided by IC50 of the reference peptide) (DRB1*0101) | relative binding ratio (IC50 of the test peptide divided by IC50 of the reference peptide) (DRB5) | relative binding ratio (IC50 of the test peptide divided by IC50 of the reference peptide) (DRB1*0301) | relative binding ratio (IC50 of the test peptide divided by IC50 of the reference peptide) (DRB1*0701)
MNLESVTPMTLTTLEGGNL [pTL2, Tear lipocalin peptide p31–49] | > 13 | > 200 | > 481 | 436 | > 167 | > 1 179 | 15 | 645 | > 236 | 55
ALEDFREFSRAKGLNQ [pC8, Can f 1 peptide p125–140] | > 13 | 2 | 245 | 189 | > 167 | > 1 179 | 155 | 101 | > 236 | 71
KPVRGVKLVGRDPKNNL [pTL7, Tear lipocalin peptide p108–124] | > 13 | 105 | 236 | > 1 260 | > 167 | > 1 179 | > 3844 | > 1 443 | 8 | > 1 874

Now from value to sequence:

relative binding ratio (IC50 of the test peptide divided by IC50 of the reference peptide) (DRB1*1501) | relative binding ratio (IC50 of the test peptide divided by IC50 of the reference peptide) (DRB1*1101) | relative binding ratio (IC50 of the test peptide divided by IC50 of the reference peptide) (DRB1*1301) | relative binding ratio (IC50 of the test peptide divided by IC50 of the reference peptide) (DRB1*0401) | relative binding ratio (IC50 of the test peptide divided by IC50 of the reference peptide) (DRB3) | relative binding ratio (IC50 of the test peptide divided by IC50 of the reference peptide) (DRB4) | relative binding ratio (IC50 of the test peptide divided by IC50 of the reference peptide) (DRB1*0101) | relative binding ratio (IC50 of the test peptide divided by IC50 of the reference peptide) (DRB5) | relative binding ratio (IC50 of the test peptide divided by IC50 of the reference peptide) (DRB1*0301) | relative binding ratio (IC50 of the test peptide divided by IC50 of the reference peptide) (DRB1*0701) | Sequence
2 | 89 | 471 | 50 | > 167 | > 1 179 | 4 | 339 | 33 | 103 | LEAKITMLTNGQCQNIT [pC3, Can f 1 peptide p48–64]
> 13 | 11 | 26 | 72 | 1 | > 1 179 | 141 | 144 | 1 | > 1 874 | KPDSVTPMILKAQKGGNL [pC2, Can f 1 peptide p31–48]
7 | 78 | 40 | 91 | > 167 | 62 | 48 | 50 | 14 | 644 | HYILYCEGELHGRQIR [pC6, Can f 1 peptide p95–110]
> 13 | 0.3 | 5 | 120 | > 167 | > 1 179 | 209 | 1 | 7 | 447 | GKHVAYIIRSHVKDHY [pTL5, Tear lipocalin peptide p82–97]
